Results: patent US10921257B2, “Method and system of pesticide detection using SERS” (priority 2016, dated 2021)

Tests used:
apple = test: SERS depth mapping of pesticide and AuNPs penetration into apples (Example 2); conditions: 100 mg/L
Description: Organic apples were carefully hand washed with ultrapure water for 3 min and air-dried before experiment to remove surface contaminants. Then a 5 μL aliquot from a 100 mg/L solution of each pesticide was pipetted onto the apple surface. After air-drying the pesticides, apple peels with ˜2.0×2.0 cm^2 area were cut from each treated apple using a sharp knife. To determine pesticide penetration with penetrative AuNPs, any interference caused by pesticide residues on the apple surface were removed by washing. Two different washing methods were investigated using either an acetic acid- or NaHCO3-containing solution. Each peel was immersed into 20 mL of either a 5% acetic acid or a 1% NaHCO3 solution for different times and gently rinsed with 200 mL of deionized water for 10 s, respectively. All washed samples were air-dried at room temperature for 10 min before being treated with AuNPs. After drying AuNPs for 1 h, SERS detection was performed on that area to evaluate washing effects. Ten discrete locations were randomly chosen on each apple peel sample and scanned. Similar samples were prepared without either washing method and were scanned as above for comparisons.
Following drying, the surface residues from each applied pesticide were washed off using either the NaHCO3 or acetic acid solution and a 5 μL aliquot of the 250 mg/L AuNPs solution was added as described above. After 1 h of drying, SERS depth mapping images were obtained using the confocal Raman instrument.
A DXR Raman microscope (Thermo Fisher Scientific, Madison, Wis., USA) with a 780 nm laser and a 20× long distance microscope objective was used in this study. Each sample was scanned from 400 to 2000 cm^−1 for a 2 s exposure time. […] Ten discrete locations were randomly chosen on each sample for analysis. For penetration studies, SERS depth mapping images were obtained using a 50 μm pinhole aperture and 1 mW laser power to control the confocal depths using a scanning depth of 300 μm. […] The step size of the depth mapping was 20 μm and one image contained 75 scanning spots. Raman images were integrated based on the characteristic peaks in the pesticide spectra using the Atlμs Function in the OMINCS software (Thermo Fisher Scientific). […] The differences among results were calculated using an analysis of variance (ANOVA) and a post hoc Duncan test with a confidence level of 95%.

grape = test: SERS depth mapping of pesticide and AuNPs penetration into grapes (Example 2); conditions: 100 mg/L
Description: (§1) Organic grapes and spinach leaves were carefully hand washed as described above for apples before experiment to remove surface contaminants. In order to study pesticide penetration in grapes, the same two washing methods were used as presented above for apples. Grapes treated with each pesticides solution (100 mg/L) were washed with either a 5% acetic acid or 1% NaHCO3 solution. Washing effects were evaluated using the SERS methods and the penetration behaviors of each pesticide were monitored as for apple above. Pesticides penetration experiments on spinach leaves were carried out as described above for apple and grape.
(§2) A DXR Raman microscope (Thermo Fisher Scientific, Madison, Wis., USA) with a 780 nm laser and a 20× long distance microscope objective was used in this study. Each sample was scanned from 400 to 2000 cm^−1 for a 2 s exposure time. For measuring pesticides on both gold slides and fresh produce surfaces, Raman mapping was carried out using a 50 μm slit aperture and 5 mW laser power to maximize the signals. Ten discrete locations were randomly chosen on each sample for analysis. For penetration studies, SERS depth mapping images were obtained using a 50 μm pinhole aperture and 1 mW laser power to control the confocal depths using a scanning depth of 300 μm. Each depth scanning vertical to produce surface was randomly selected in apple peel, grape peel or spinach leaf with an area of 100 μm×300 μm. The step size of the depth mapping was 20 μm and one image contained 75 scanning spots. Raman images were integrated based on the characteristic peaks in the pesticide spectra using the Atlμs Function in the OMINCS software (Thermo Fisher Scientific). Statistical analysis was conducted using SPSS Statistics 22 software (IBM Corporation, Armonk, N.Y., USA). The differences among results were calculated using an analysis of variance (ANOVA) and a post hoc Duncan test with a confidence level of 95%.

spinach leaves [1] = test: SERS depth mapping of pesticide and AuNPs penetration into spinach leaves (Example 1); conditions: 20 ppm
Description: These leaves were carefully washed with ultrapure water and dried before experimentation. […] A volume of 50 μL of each solution was then mixed with 50 μL of a 250 ppm 50 nm AuNPs solution for 1 min. at room temperature to ensure complete pesticide complexation with AuNPs through Au-thiol bond. 5 μL of each of the pre-prepared pesticide solution were then pipetted onto spinach leaves situated on a glass slide and air-dried in a fume hood for 30 min. […] All controls were air-dried in a fume hood as above. For evaluation of feasibility of Raman detection of pesticides on spinach leaves, 5 μL of the pre-prepared pesticide solution and AuNPs solution without pesticide were also dropped onto a gold slide and dried for 30 min in a hood for comparisons. Raman spectra were collected individually for all treatments.
After 1 h, bright field light scattering images and SERS mapping images were collected from all samples.
In order to remove any interference caused by pesticide residues on the spinach leaf surface, different washing methods were investigated. […] Then each leaf was immersed into 20 mL of deionized water or 20 mL of a 10 mg/mL of NaHCO3 solution. For the water washing method, each leaf was submerged into water for either 10 or 60 min. For the NaHCO3 washing method, each leaf was submerged into the NaHCO3 solution for 30, 60, 90, or 120 s and then gently rinsed with 500 mL of deionized water for 30 s, respectively. All washed leaf samples were air-dried at room temperature for 30 min before being treated with AuNPs. […]
After 1 h for drying, SERS depth mapping images were obtained using the confocal Raman instrument. Similar samples without washing were likewise measured for comparison purposes.
To study accurate systemic pesticide penetration, different washing methods were also used to remove surface thiabendazole residues. […] Surface thiabendazole residues were then analyzed by pipetting 5 μL of a 250 ppm AuNP solution onto the same leaf area where thiabendazole had been placed prior to washing and determining SERS depth mapping images by Raman instrument as before. […]

spinach leaves [2] = test: SERS depth mapping of pesticide and AuNPs penetration into spinach leaves (Example 2); conditions: 100 mg/L
Description: as §1, §2

live basil leaves = test: SERS depth mapping of pesticide and AuNPs penetration into live basil leaves (Example 3)
Description: (§3) A 5 μL aliquot of the mixture was pipetted onto harvested leaves or onto the live leaves on the plant. After air drying for 30 min, SERS depth mapping images were obtained using a confocal Raman instrument as detailed below.
For the study of pesticide penetration into live basil leaves, 36 intact leaves (approximately 0.2 g per leaf) were selected from six live plants as the experimental target (6 leaves per plant) and carefully rinsed with 450 mL ultrapure water for 30 s and air-dried before the experiment to remove surface contaminants like dust. After rinsing, the clean leaves were used to study of pesticide penetration. […] Some of the pesticides might penetrate into leaves from the surface during the periods. After pesticide penetrated into leaves for different time periods, ultrapure water with flow rate of 15 mL/s was utilized to gently rinse the surface of leaves (Step 2). Different rinsing times were then investigated to complete removal of each pesticide residue on the surface. After rinsing of surface pesticide residues, all leaf samples were air-dried at room temperature for 30 min. […] The video camera in the Raman microscope was used to record the position on the leaves and help to find the same area for AuNPs deposition. After AuNPs treatment for drying 30 min, SERS detection was performed on that area using the confocal Raman instrument. Each treatment was performed twice.
For penetration studies, SERS depth mapping images were obtained using a 50 μm pinhole aperture and 3 mW laser power to control the confocal depth using a scanning depth of 300 μm. Each depth area (100 μm×300 μm) was chosen from the treated spot on the leaf distant from a gland because the gland is the cavity, not a flat surface. The step size of the depth mapping was 20 μm and one image contained 75 scanning spots. Raman images were integrated based on the characteristic peaks in the pesticide spectra using the Atlμs Function in the OMINCS software (Thermo Fisher Scientific). There was one spot on each leaf and one depth area was selected from each spot. For each pesticide depth mapping experiment, there were six duplicates with six leaves coming from three different plants (2 leaves from each plant).
Pesticide penetration was investigated using both intact and damaged leaves on live plants. Damaged leaves were prepared using a sharp knife to scratch the top surface of intact leaves. Each of the damaged leaves had 20 scrapes on each leaf and the distance between each scrape is 0.2 cm.

harvested basil leaves = test: SERS depth mapping of pesticide and AuNPs penetration into harvested basil leaves (Example 3); conditions: 10 mg/L
Description: as §3
For the study of the pesticides penetration on harvested basil leaves, 36 intact leaves (0.2 g per leaf) were first cut off from petiole on live plants using a sharp knife and carefully rinsed as described above for live leaves. During the experiment, the stems of each harvested leaf were immersed into water to keep the leaf fresh. To study pesticide penetration into harvested leaves, the same rinsing method and pesticides penetration protocols were carried out as described above for live leaves.
For penetration studies, SERS depth mapping images were obtained using a 50 μm pinhole aperture and 3 mW laser power to control the confocal depth using a scanning depth of 300 μm. Each depth area (100 μm×300 μm) was chosen from the treated spot on the leaf distant from a gland because the gland is the cavity, not a flat surface. The step size of the depth mapping was 20 μm and one image contained 75 scanning spots. […] The differences among results were calculated using an independent sample T-test or analysis of variance (ANOVA) and a post hoc Duncan test with a confidence level of 95%.

[3] = 48 h exposure, surface residues washed off

c1ccc2[nH]c(-c3cscn3)nc2c1 [thiabendazole, 2-(4-thiazolyl)-1H-benzimidazole]
Exposure time at which penetration was first observed (apple): 30 min | Penetration depth (apple; 24 h): about 140 μm | Penetration depth (apple; [3]): approximately 160 μm | Exposure time at which penetration was first apparent (grape): 30 min | Penetration depth (grape; 24 h): about 36 μm | Penetration depth (grape; [3]): about 55 μm | Earliest time of detecting pesticide inside leaves (spinach leaves [1]; surface residues washed off with NaHCO3): 6 h | Penetration depth in depth mapping images with increasing exposure time (spinach leaves [1]; washed): approximately 150 μm | Penetration depth from scans parallel to leaf surface at different depths (spinach leaves [1]; washed, 2 days exposure): approximately 210 μm | Exposure time at which pesticide was first detected (spinach leaves [2]): 30 min | Penetration depth (spinach leaves [2]; 30 min): 100 μm | Penetration depth (spinach leaves [2]; 24 h): ~160 μm | Penetration depth (spinach leaves [2]; [3]): ~220 μm | Exposure time at which penetration was first seen (live basil leaves; 10 mg/L, live leaves): 30 min | Penetration depth (live basil leaves; 10 mg/L, live leaves, 48 h after exposure, surface rinsed): ~225 μm | Penetration depth (live basil leaves; damaged (knife-scratched) leaves on live plants): 80 μm | Penetration depth (live basil leaves; intact leaves on live plants): 170 μm | Penetration depth (live basil leaves; large (old, 45 days) leaves, 24 h exposure): 165 μm | Penetration depth (live basil leaves; small (young, 15 days) leaves, 24 h exposure): 95 μm | Exposure time at which penetration was first seen (harvested basil leaves): 30 min | Penetration depth (harvested basil leaves; 48 h after exposure, surface rinsed): approximately 180 μm

C/C(=N\C#N)N(C)Cc1ccc(Cl)nc1 [acetamiprid, (E)-N-[(6-chloro-3-pyridyl)methyl]-N′-cyano-N-methylethanimidamide]
Exposure time at which penetration was first observed (apple): 30 min | Penetration depth (apple; [3]): ~140 μm | Exposure time at which penetration was first apparent (grape): 30 min | Penetration depth (grape; [3]): about 75 μm | Penetration depth (spinach leaves [2]; [3]): 90 μm

COP(=S)(OC)SCN1C(=O)c2ccccc2C1=O [phosmet, O,O-dimethyl S-Phthalimido Methyl Phosphorodithioate]
Exposure time at which pesticide was first detected (apple): 6 h | Penetration depth (apple; [3]): ~55 μm | Exposure time at which penetration was first observed (grape): 48 h | Penetration depth (grape; [3]): about 20 μm | Exposure time at which pesticide was first detected (spinach leaves [2]): 1440 min | Penetration depth (spinach leaves [2]; [3]): 70 μm
